Test results published in publication PMC11386433 (Journal of Medicinal Chemistry, 2024).
Where two headings read alike, the source gives them in different places.

Legend:
human κOR = biological target: T1, human κOR (Homo sapiens, UniProt P41145); assay: biochemical; assay type: binding
T1 construct: host or cells: HEK293T (membrane preparation)

δOR [1] = biological target: T2, δOR (Homo sapiens, UniProt P41143); assay type: binding; design: host or cells: CHO-K1; conditions: labeled with 1 μM
T2 sequence (P41143 whole entry): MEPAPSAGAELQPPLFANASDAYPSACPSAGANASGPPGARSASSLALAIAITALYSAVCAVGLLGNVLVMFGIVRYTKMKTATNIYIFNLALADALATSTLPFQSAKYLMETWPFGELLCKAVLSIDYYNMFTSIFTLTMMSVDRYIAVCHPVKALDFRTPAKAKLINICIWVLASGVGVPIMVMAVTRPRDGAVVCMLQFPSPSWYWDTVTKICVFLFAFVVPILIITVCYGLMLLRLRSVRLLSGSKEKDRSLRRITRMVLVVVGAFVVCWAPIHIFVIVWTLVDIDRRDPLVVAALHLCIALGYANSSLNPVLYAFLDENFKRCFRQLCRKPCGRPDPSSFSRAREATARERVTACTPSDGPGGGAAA

wild-type human δOR = biological target: T3, wild-type human δOR (Homo sapiens, UniProt P41143); assay: Single-molecule microscopy of CHO cells transfected with wild-type δOR; assay type: cell-based
T3 construct: host or cells: CHO-K1
T3 sequence (P41143 whole entry): as above

human μOR = biological target: T4, human μOR (Homo sapiens, UniProt P35372); assay: biochemical; assay type: binding
T4 construct: host or cells: HEK293T (membrane preparation)
T4 sequence (P35372 whole entry): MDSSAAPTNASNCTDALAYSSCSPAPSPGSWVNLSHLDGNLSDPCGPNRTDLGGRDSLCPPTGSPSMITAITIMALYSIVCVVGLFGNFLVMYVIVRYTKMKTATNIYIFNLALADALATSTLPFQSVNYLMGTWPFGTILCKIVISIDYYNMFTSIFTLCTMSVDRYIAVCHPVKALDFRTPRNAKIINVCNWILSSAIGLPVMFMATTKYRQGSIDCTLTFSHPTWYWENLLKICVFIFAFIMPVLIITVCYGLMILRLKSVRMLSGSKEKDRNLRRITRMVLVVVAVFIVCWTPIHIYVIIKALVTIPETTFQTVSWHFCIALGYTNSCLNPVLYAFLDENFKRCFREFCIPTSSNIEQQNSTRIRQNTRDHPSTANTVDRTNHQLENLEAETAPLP

δOR [2] = biological target: T2, δOR; assay: cell-based; assay type: cell-based; design: Gαqi gift from The J. David Gladstone Institutes; host or cells: HEK293T; conditions: for Emax: HEK-293T, read-out: Emax (agonist properties); for response in agonist mode: IP-One assay
δOR [3] = biological target: T2, δOR; assay: cell-based; assay type: cell-based; design: host or cells: HEK293T stably expressing EA-β-arrestin-2; conditions: for Emax: HEK-293T, read-out: Emax (agonist properties); for response in agonist mode: β-arrestin-2 recruitment
[4] = biological target: T5, δOR (SNAP-opioid receptor) (Homo sapiens, UniProt P41143); assay: HTRF saturation binding of fluorescent ligand to SNAP-opioid receptors on HEK293T cells; conditions: HTRF saturation curve, 1 h room temperature, nonspecific binding with naloxone 100 μM
T5 construct: host or cells: HEK293T
T5 sequence (P41143 whole entry): as the sequence (P41143 whole entry) above

[5] = biological target: T6, μOR (SNAP-opioid receptor) (Homo sapiens, UniProt P35372); assay: as above
T6 construct: host or cells: HEK293T
T6 sequence (P35372 whole entry): as the sequence (P35372 whole entry) above

[6] = biological target: T7, κOR (SNAP-opioid receptor) (Homo sapiens, UniProt P41145); assay: as above
T7 construct: host or cells: HEK293T
T7 sequence (P41145 whole entry): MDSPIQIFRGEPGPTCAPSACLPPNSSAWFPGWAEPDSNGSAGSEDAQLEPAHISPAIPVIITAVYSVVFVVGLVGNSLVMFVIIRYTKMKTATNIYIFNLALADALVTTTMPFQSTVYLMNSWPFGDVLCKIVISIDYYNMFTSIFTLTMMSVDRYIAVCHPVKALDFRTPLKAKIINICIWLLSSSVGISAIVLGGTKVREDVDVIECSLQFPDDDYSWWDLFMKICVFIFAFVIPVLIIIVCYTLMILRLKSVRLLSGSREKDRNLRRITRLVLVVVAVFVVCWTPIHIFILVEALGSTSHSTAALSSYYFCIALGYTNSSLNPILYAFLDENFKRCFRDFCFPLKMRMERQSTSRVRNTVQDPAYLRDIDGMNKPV

[7] = HTRF saturation curve, value of high uncertainty, saturation not reached
[8] = selectivity ratio of HTRF Kd values, high uncertainty

T1 sequence (P41145 whole entry): as above

Row | SMILES | Ki (human κOR) | κ/δ (human κOR) | wash resistance (δOR [1]; after 15 min of medium wash out) | time after labeling at which labeled δOR molecules could still be observed diffusing on the plasma membrane (wild-type human δOR) | Ki (human μOR) | μ/δ (human μOR) | IC50 (δOR [2]) | Emax (δOR [2]) | response in agonist mode (δOR [2]) | IC50 (δOR [3]) | Emax (δOR [3]) | response in agonist mode (δOR [3]) | wash resistance (δOR [1]; after 20 min of medium wash out) | Kd [4] | Kd [5, 7] | μ/δ [5, 8] | Kd [6, 7] | κ/δ [6, 8]
1 | CN1/C(=C/C=C/C2=[N+](CCCCCC(=O)NCC(=O)NCC(=O)NCC(=O)NCC(=O)Nc3cccc4c5c([nH]c34)[C@@H]3Oc4c(O)ccc6c4[C@@]34CCN(CC3CC3)[C@H](C6)[C@]4(O)C5)c3ccc(S(=O)(=O)[O-])cc3C2(C)C)C(C)(C)c2cc(S(=O)(=O)O)ccc21 [6-Cy3, 1-(1-(((4bS,8R,8aS,14bR)-7-(cyclopropylmethyl)-1,8a-dihydroxy-5,6,7,8,8a,9,14,14b-octahydro-4,8-methanobenzofuro[2,3-a]pyrido[4,3-b]carbazol-13-yl)amino)-1,4,7,10,13-pentaoxo-3,6,9,12-tetraazaoctadecan-18-yl)-3,3-dimethyl-2-((E)-3-((E)-1,3,3-trimethyl-5-sulfoindolin-2-ylidene)prop-1-en-1-yl)-3H-indol-1-ium-5-sulfonate] | 330 nM | 190 | 69 ± 1% | 2 to 3 h | 370 nM | 220 | 38 nM | < 10% | did not elicit a response | 47 nM | < 5% | did not elicit a response | – | – | – | – | – | –
2 | CN1/C(=C/C=C/C=C/C2=[N+](CCCCCC(=O)NCC(=O)NCC(=O)NCC(=O)NCC(=O)Nc3cccc4c5c([nH]c34)[C@@H]3Oc4c(O)ccc6c4[C@@]34CCN(CC3CC3)[C@H](C6)[C@]4(O)C5)c3ccc(S(=O)(=O)[O-])cc3C2(C)C)C(C)(C)c2cc(S(=O)(=O)O)ccc21 [6-Cy5, 1-(1-(((4bS,8R,8aS,14bR)-7-(cyclopropylmethyl)-1,8a-dihydroxy-5,6,7,8,8a,9,14,14b-octahydro-4,8-methanobenzofuro[2,3-a]pyrido[4,3-b]carbazol-13-yl)amino)-1,4,7,10,13-pentaoxo-3,6,9,12-tetraazaoctadecan-18-yl)-3,3-dimethyl-2-((1E,3E)-5-((E)-1,3,3-trimethyl-5-sulfoindolin-2-ylidene)penta-1,3-dien-1-yl)-3H-indol-1-ium-5-sulfonate] | 78 nM | 65 | – | – | 100 nM | 83 | 54 nM | < 5% | did not elicit a response | 33 nM | < 5% | did not elicit a response | 93 ± 1% | 1.8 ± 0.8 nM | 215 ± 262 nM | 120 | 226 ± 131 nM | 126
